15 compounds from patent US4288596A, “Furoindoles” (priority 1978, dated 1981) can be followed below.

Structures are written as SMILES. Where a name gives a salt, the structure may show the parent alone.

A short description of series [1]: Analgesic effect by acetic acid writhing method. It is filed as in vivo, mice of ddY strain. As to conditions: Mus musculus, 20 min; oral, mice; 0.7% acetic acid i.p. 20 min after dosing; read-out: Analgesic action (ED50), Writhing method. On the procedure: Test 1: ANALGESIC EFFECT BY ACETIC ACID WRITHING METHOD (Koster et al., Fed Proc., 18, 412 (1959))
Ten mice of ddY strain weighing 18-24 g were used in testing each compound. Twenty minutes after oral administration of test compounds, 0.1 ml/10 g of 0.7% acetic acid solution was injected intraperitoneally and the number of writhing syndromes was recorded for 10 minutes from 10 minutes after acetic acid injection. ED50 values were calculated from inhibition percent for each test compound.
On the technique in general: In writhing tests, fewer writhes than in controls are read as antinociception.

The next series is described as follows: in vivo. The note with it: rat, po. Details: species or system male rats of Wistar strain. On the procedure:
Test 5: ULCERATION IN STOMACH (Brodie et al., Gastroenterology, 56, 206 (1969))
Ten male rats of Wistar strain weighing 190-200 g were used for each dose. Rats were deprived of food for 24 hours before experiments. Test compounds were administered orally and 18 hours later the rats were sacrificed, thereafter the area of each gastric lesion was measured and summed under dissecting microscope (×9). UD50 values were calculated from the gastric lesion area.

Series [2] can be described thus: Analgesic effect by D'Amour-Smith's method. As to conditions: Mus musculus; oral, mice; reaction time at 30, 60, 90 and 120 min; read-out: Analgesic action (ED50), D'Amour-Smith's method. The class given is in vivo, mice of ddY strain. As to the method:
Test 3: ANALGESIC EFFECT BY D'AMOUR-[…] METHOD (D'Amour et al., J. Pharmacol. Exp. Ther., 72, 74 (1941)) Ten mice of ddY strain weighing 18-24 g and showing reaction times of 2-5 seconds were used in testing each compound. The reaction time was measured at 30, 60, 90 and 120 minutes after oral administration of the test compounds and positive analgesic response was recorded when the reaction time was two or more times longer than pre-administration. ED50 values were calculated from the number of positive mice.

The nature of series [3]: Anti-inflammatory effect by carrageenin edema method. It is filed as in vivo, male rats of Wistar strain. The note with it: rats; for ED50: Rattus norvegicus, oral, carrageenin edema, foot volume at 3 hours, read-out: Anti-inflammatory action (ED50); for Ratio of antiedematous action (100 mg/kg test compound/100 mg/kg phenylbutazone): ratio of inhibition % at 100 mg/kg oral, values marked * in the anti-inflammatory column. As to the method: Test 4: ANTI-INFLAMMATORY EFFECT BY CARRAGEENIN EDEMA METHOD (Winter et al., Proc. Soc. Exp. Biol. Med., 111, 544 (1962)) Six male rats of Wistar strain weighing 110-120 g were used in testing each compound. […] ED50 values were calculated from the inhibition percent of foot volume, and the ratios of anti-edematous action of test compounds were calculated by the formula; (the inhibition % of 100 mg/kg test compounds)/(the inhibition % of 100 mg/kg phenylbutazone).
A general note: Carrageenan injected into the paw causes an acute inflammation.

The nature of series [4]: Analgesic effect by tail pressure method. It is filed as in vivo, mice of ddY strain. As to conditions: Mus musculus; oral, mice; pain threshold at 30, 60, 90 and 120 min; read-out: Analgesic action (ED50), Tail pressure method. As to the method: Test 2: ANALGESIC EFFECT BY TAIL PRESSURE METHOD (Keijiro Takagi et al., Yakugaku Zasshi, 78, 553 ([…])) Ten mice of ddY strain weighing 18-24 g and showing pain threshold of 50-80 mmHg were used in testing each compound. The pain threshold was measured at 30, 60, 90 and 120 minutes after oral administration of the test compounds and positive analgesic response was recorded when the pain threshold was two or more times higher than pre-administration. ED50 values were calculated from the numbers of positive mice.

As a reminder, the ED50 is the dose that gives a 50% effect, or the effect in half of the subjects.

Regarding `CC(C)Cc1ccc(C(C)C(=O)O)cc1` (centres unmarked) [Ibuprofen, reference compound], the ED50 in series [1] is 195 mg/kg; in series [2], more than 300 mg/kg; in series [3], 66.5 mg/kg; in series [4], 324 mg/kg. In “in vivo”, the TD50 at 18 h came to 278 mg/kg.
On the same counts, the results for `O=C(Cn1c(=O)sc2ccc(Cl)cc21)N1CCN(CCO)CC1` [Tiaramide HCl, reference compound] are 66 mg/kg, 93 mg/kg, 84.3 mg/kg, 110 mg/kg and more than 200 mg/kg.
Regarding `Cc1c(N(C)C)c(=O)n(-c2ccccc2)n1C` [Aminopyrin, reference compound], the ED50 in series [1] was 38 mg/kg; in series [2], 225 mg/kg; in series [4] it was 98 mg/kg.
Consider `O=C(NCCCN1CCCCC1)c1cc2[nH]c3cc(Cl)ccc3c2o1` [Compound No. 5, 6-chloro-furo[3,2-b]indole-2-(N-piperidinopropyl)carboxamide], for which the ED50 in series [1] was determined as 64.2 mg/kg; in series [2], 100 mg/kg; in series [4], 80 mg/kg. This compound registered a TD50 at 18 h in the series “in vivo” of 400 mg/kg. Moreover, in series [3], the “Ratio of antiedematous action (100 mg/kg test compound/100 mg/kg phenylbutazone)” value (“Ratio of antiedematous action” below) is on record as 0.73.
In the case of `CCn1c2cc(C(F)(F)F)ccc2c2oc(C(=O)NCCCN3CCCCC3)cc21` [Compound No. 11, 4-ethyl-6-trifluoromethyl-furo[3,2-b]indole-2-(N-piperidinopropyl)carboxamide], the results for the ED50 in series [1], in series [2] and in series [4] were 30 mg/kg, 50 mg/kg and 41 mg/kg, respectively. In addition, the “Ratio of antiedematous action” value in series [3] was determined as 1.29.
As for `CCn1c2cc(F)ccc2c2oc(C(=O)NCCCN3CCCCC3)cc21` [Compound No. 13, 4-ethyl-6-fluoro-furo[3,2-b]indole-2-(N-piperidinopropyl)carboxamide], the results for the ED50 in series [1], in series [2] and in series [4] were 87.5 mg/kg, 79.9 mg/kg and 90.8 mg/kg, respectively. In addition, the “Ratio of antiedematous action” value in series [3] is 0.84.
On the same counts, the results for `CCn1c2cc(Cl)ccc2c2oc(C(=O)NCCCN3CCCCC3)cc21` [Compound No. 7, 6-chloro-4-ethyl-furo[3,2-b]indole-2-(N-piperidinopropyl)carboxamide] are 56.4 mg/kg, 31 mg/kg, 41.8 mg/kg and 1.45.
`Cn1c2ccccc2c2oc(C(=O)NCCCN3CCCCC3)cc21` [Compound No. 2, 4-methyl-furo[3,2-b]indole-2-(N-piperidinopropyl)carboxamide]: the ED50 is 36 mg/kg in series [1], 115 mg/kg in series [2] and 68 mg/kg in series [4]. Further, in series [3], the “Ratio of antiedematous action” value was 0.82.
Turning to `CC(C)n1c2cc(C(F)(F)F)ccc2c2oc(C(=O)NCCCN3CCCCC3)cc21` [Compound No. 12, 4-isopropyl-6-trifluoromethyl-furo[3,2-b]indole-2-(N-piperidinopropyl)carbonxamide], the ED50 in series [1] turned out to be 68.3 mg/kg; in series [2] it was 300 mg/kg; in series [4], 93 mg/kg. Also, in “in vivo”, the TD50 at 18 h is 351 mg/kg. Moreover, the “Ratio of antiedematous action” value in series [3] is on record as 2.19.
For the compound `CCCn1c2cc(C)ccc2c2oc(C(=O)NCCCN3CCCCC3)cc21` [Compound No. 15, 6-methyl-4-n-propyl-furo[3,2-b]indole-2-(N-piperidinopropyl)carboxamide], the figures for the ED50 in series [1], in series [2] and in series [4] were 91 mg/kg, 87.6 mg/kg and 79.2 mg/kg, respectively. For the same compound, the “Ratio of antiedematous action” value in series [3] was determined as 0.78.
On the same counts, the results for `Cn1c2cc(Cl)ccc2c2oc(C(=O)NCCCN3CCCCC3)cc21` [Compound No. 6, 6-chloro-4-methyl-furo[3,2-b]indole-2-(N-piperidinopropyl)carboxamide] are 29.5 mg/kg, 59 mg/kg, 50 mg/kg and 1.29.
As for `Cn1c2cc(C(F)(F)F)ccc2c2oc(C(=O)NCCCN3CCCCC3)cc21` [Compound No. 10, 4-methyl-6-trifluoromethyl-furo[3,2-b]indole-2-(N-piperidinopropyl)carboxamide], the ED50 in series [1] amounted to 32.5 mg/kg; in series [2], 49 mg/kg; in series [3], 45.4 mg/kg; in series [4], 38 mg/kg. Moreover, in the series “in vivo”, the TD50 at 18 h was more than 200 mg/kg.
For `CC(C)n1c2cc(Cl)ccc2c2oc(C(=O)NCCCN3CCCCC3)cc21` [Compound No. 8, 6-chloro-4-isopropyl-furo[3,2-b]indole-2-(N-piperidinopropyl)carboxamide], the ED50 in series [1] was determined as 68.4 mg/kg; in series [2], 100 mg/kg; in series [4], 87 mg/kg. Moreover, the “Ratio of antiedematous action” value in series [3] is given as 0.56.
Consider `CCCCC1C(=O)N(c2ccccc2)N(c2ccccc2)C1=O` [Phenylbutazone, reference compound], for which the ED50 in series [1] was 123 mg/kg; in series [2], more than 300 mg/kg; in series [3], 110 mg/kg; in series [4], more than 300 mg/kg. In “in vivo”, this compound came in with a TD50 at 18 h of 145 mg/kg.
Turning to `CCCn1c2cc(OC)ccc2c2oc(C(=O)NCCCN3CCCCC3)cc21` [Compound No. 14, 6-methoxy-4-n-propyl-furo[3,2-b]-indole-2-(N-piperidinopropyl)carboxamide], the ED50 is 81.2 mg/kg in series [1], more than 100 mg/kg in series [2] and 84.6 mg/kg in series [4]. Besides, the “Ratio of antiedematous action” value in series [3] is on record as 0.92.
